This is an account of results in paper PMC9661476 (Journal of Medicinal Chemistry, 2022).

Each structure is given as a SMILES string. Converted amounts (≈) assume the structure as drawn. Read-outs that look alike come from different tables or passages of the source.

The solubility is the dissolved amount per volume that the medium holds. As a reminder, the melting point is the temperature, or range, at which the solid turns liquid.

Series [1] is described as follows: Aqueous solubility measurement. In kind it is physicochemical. The conditions noted are these: for solubility: distilled or deionized water; for solubility, single assay: water. As to the method: Then, distilled or deionized water was added under gentle agitation until total dissolution. All the experiments were performed in triplicate.
For a further series, the system named is plasmatic TTR. The conditions noted are these: Phase IIa, FAP patients; cited from earlier work.
[2] abbreviates: assays 1-3 of triplicate, read-out: solubility, single assay.
[3] abbreviates: average of triplicate, read-out: solubility, average.

In the case of `O=C(c1cc(O)cc(F)c1)c1cc(O)c(O)c([N+](=O)[O-])c1` [Compound M-23, (3,4-Dihydroxy-5-nitrophenyl)-(3-fluoro-5-hydroxyphenyl)methanone], the solubility in series [1] (setting [2]) was determined as 44 µg/mL (≈ 150 µM); in series [1] (setting [3]), 45 µg/mL (≈ 153 µM). Besides, the “solubility, single assay” value in series [1] (assays 1-3 of triplicate) amounted to 45 µg/mL (≈ 153 µM).

For `O=C(c1cc(Cl)cc(Cl)c1)c1cc(O)c(O)c([N+](=O)[O-])c1` [Compound M-20, (3,5-Dichlorophenyl)-(3,4-dihydroxy-5-nitrophenyl)methanone], the melting point lay in the range of 182 to 184 °C.

With `Cc1ccc(C(=O)c2cc(O)c(O)c([N+](=O)[O-])c2)cc1` [tolcapone, 3,4-dihydroxy-4′-methyl-5-nitrobenzophenone, reference compound], the solubility in series [1] (setting [2]) and in series [1] (setting [3]) was 56 µg/mL (≈ 205 µM) in each case. Moreover, the “solubility, single assay” value in series [1] (assays 1-3 of triplicate) came to 55 µg/mL (≈ 201 µM). In addition, the Adverse events result in the series on plasmatic TTR is “no adverse events were registered”.

Compound `O=C(c1cc(F)cc(F)c1)c1cc(O)c(O)c([N+](=O)[O-])c1` [Compound M-21, (3,5-Difluorophenyl)-(3,4-dihydroxy-5-nitrophenyl)methanone] yielded a melting point of 135 to 137 °C.

`O=C(c1ccc(C(F)(F)F)cc1)c1cc(O)c(O)c([N+](=O)[O-])c1` [Compound M-14, (3,4-Dihydroxy-5-nitrophenyl)-[4-(trifluoromethyl)phenyl]methanone] yielded a melting point of 68 to 71 °C.
